In article PMC7827217, “Probing the Binding Requirements of Modified Nucleosides with the DNA Nuclease SNM1A” (Molecules, 2021):

Experiments:
SNM1A = tested on: SNM1A; parameters: method as in PMID 31380542; settings: previous work; cited from earlier work
[1] = biological target: T1, recombinant SNM1A (698-1040) (Homo sapiens, UniProt Q6PJP8); assay: Gel-based SNM1A inhibition assay (digestion of fluorescent 21-mer oligonucleotide substrate, denaturing PAGE); format: biochemical; settings: for Lowest Inhibitory Concentration: concentration gradient 1 mM to 1 µM, approximately 3-fold dilutions, 60 min at 37 °C; for Lowest Inhibitory Concentration / Inhibition of SNM1A (extent of digestion of substrate): SNM1A 2.5 nM, substrate 80 nM, 5 min preincubation; for Inhibition of SNM1A (extent of digestion of substrate): 1 mM compound, 60 min incubation (Figure 2c)
T1 construct: SNM1A (698-1040) was expressed and purified as described by Allerston et al; made in house
T1 sequence (Q6PJP8 698-1040): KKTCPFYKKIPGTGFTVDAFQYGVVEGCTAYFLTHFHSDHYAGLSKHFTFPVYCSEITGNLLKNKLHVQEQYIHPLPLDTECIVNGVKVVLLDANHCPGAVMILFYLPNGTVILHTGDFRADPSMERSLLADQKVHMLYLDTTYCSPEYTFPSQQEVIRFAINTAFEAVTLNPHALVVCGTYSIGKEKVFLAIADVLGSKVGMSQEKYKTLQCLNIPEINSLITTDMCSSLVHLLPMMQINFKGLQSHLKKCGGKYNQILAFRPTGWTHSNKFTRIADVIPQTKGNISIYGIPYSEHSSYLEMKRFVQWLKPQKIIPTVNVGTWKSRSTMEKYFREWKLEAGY
Procedure: The twelve modified nucleosides (Figure 2a) were evaluated as inhibitors of recombinant SNM1A to evaluate binding to the active site, using a previously reported gel-based assay with the same 21-mer oligonucleotide substrate. The nucleosides were incubated with SNM1A for 5 min prior to the addition of the fluorescently tagged 21-mer oligonucleotide substrate and further incubation for 1 h. In the event of the nucleoside binding to the active site, digestion of the substrate proceeds less efficiently (Figure 2b). SNM1A removes nucleotide monomers from the 5′-end, generating a shorter oligonucleotide that in turn is a substrate for SNM1A and can be digested further. The size of the oligonucleotide products, analysed by gel electrophoresis, therefore indicates how strongly a compound binds to the nuclease.
SNM1A (698-1040) was expressed and purified as described by Allerston et al..
SNM1A (698-1040) was stored as a 1.0 µM solution in reaction buffer (20 mM HEPES-KOH, pH 7.5, 50 mM KCl, 10 mM MgCl2, 0.05% Triton-X, 0.1 mg/mL BSA, 5% glycerol, 0.5 mM DTT). An oligonucleotide of the sequence 5′-TTAGCAGTCAGTCAGTCATCG-Cy3-3′ was phosphorylated using T4 PNK (New England Biolabs) and used as the substrate. Modified nucleosides were added to the assay in 40% DMSO solution (10 mM or as specified). Fluorescent oligonucleotides were protected from light during incubations and gel electrophoresis.
Modified nucleosides (10 nmol or as specified) were mixed with SNM1A (698–1040) (25 fmol) in reaction buffer containing 4% DMSO (10 µL) on ice and incubated at 37 °C for 5 min. Phosphorylated oligonucleotide (0.8 pmol) was added and the reaction was incubated at 37 °C for 60 min. The reaction was stopped by the addition of stop solution (2 µL, 95% formamide, 10 mM EDTA) followed by heating to 95 °C for 3 min. The products of the reaction were analysed using gel electrophoresis; 3 µL of each reaction was used.
Oligonucleotides were separated on a 15% acrylamide 6.5 M urea gel (2.9 g urea, 2.7 mL 40% acrylamide-bisacrylamide 25:1, 1.4 mL 5× TBE (0.45 M Tris, 0.45 M boric acid, 0.01 M EDTA pH 8.0), 0.6 mL H2O) in 1X TBE at 150 V for 90 min alongside bromophenol blue and xylene cyanol as markers for 8 and 28 nt, respectively, and imaged using Typhoon FLA 9500.
Figure 2 Evaluation of modified (di)nucleosides as inhibitors of SNM1A. (a) Structures of the twelve (di)nucleosides that were evaluated as inhibitors of SNM1A; (b) schematic representation of assay; (c) gel electrophoresis showing the extent of digestion of fluorescent 21-mer oligonucleotide substrate. SNM1A (2.5 nM) was pre-incubated with the modified (di)nucleosides (1 mM) for 5 min before the oligonucleotide substrate (80 nM) was added and a further 60 min incubation. nt = nucleotides.
Figure 3 Concentration dependence of 5′-C-linked malonate nucleoside 11. Digestion of the phosphorylated oligonucleotide (80 nM) after incubation with SNM1A (2.5 nM) and nucleoside 11 (1000–1 µM) or thymidine (T) (1 mM) for 60 min at 37 °C, analysed by denaturing PAGE. SNM1A was preincubated with the modified nucleoside for 5 min at 37 °C prior to the addition of the substrate. nt = nucleotides.

| SMILES | Inhibition of SNM1A (SNM1A) | Lowest Inhibitory Concentration [1] [µM] | Inhibition of SNM1A (extent of digestion of substrate) [1] | Potency compared with previously reported compounds ([1]; various concentrations, Figure 5b) |
| --- | --- | --- | --- | --- |
| Cc1cn([C@H]2C[C@H](O)[C@@H](C(=O)NO)O2)c(=O)[nH]c1=O [Compound 1] | inhibit SNM1A to varying degrees | – | – | – |
| Cc1cn([C@H]2C[C@H](O)[C@@H](CCC(=O)NO)O2)c(=O)[nH]c1=O [Compound 2] | inhibit SNM1A to varying degrees | – | – | – |
| COC(=O)C(C[C@H]1O[C@@H](n2cc(C)c(=O)[nH]c2=O)C[C@@H]1O)C(=O)O (stereo partly shown) [Compound 9, C-(5′-Deoxythymidin-5′-yl) monomethyl sodium malonate] | – | 333 | – | – |
| Cc1cn([C@H]2C[C@H](O)[C@@H](CC(C(=O)O)C(=O)O)O2)c(=O)[nH]c1=O [Compound 10, C-(5′-Deoxythymidin-5′-yl) disodium malonate] | – | 333 | – | – |
| Cc1cn([C@H]2C[C@H](O)[C@@H](CC(C(=O)O)C(=O)NO)O2)c(=O)[nH]c1=O (stereo partly shown) [Compound 11, C-(5′-deoxythymidin-5′-yl) sodium N-hydroxymalonamide] | – | 33 | most potent overall | slightly lower potency than compound 1 |
| Cc1cn([C@H]2C[C@H](O)[C@@H](CNC(=O)CC(=O)NO)O2)c(=O)[nH]c1=O [Compound 15, N-(5′-Deoxythymidin-5′-yl) amido N-hydroxymalonamide] | – | 333 | binds SNM1A | – |
| COC(=O)CC(=O)NC1CC(n2cc(C)c(=O)[nH]c2=O)OC1CO (stereo not shown) [Compound 26, N-(3′-Deoxythymidin-3′-yl) amido methyl malonamide] | – | – | inactive | – |
| Cc1cn([C@H]2C[C@H](NC(=O)CC(=O)O)[C@@H](CO)O2)c(=O)[nH]c1=O [Compound 27, N-(3′-Deoxythymidin-3′-yl) amido sodium malonamide] | – | 333 | – | – |
| Cc1cn([C@H]2C[C@H](NC(=O)CC(=O)NO)[C@@H](CO)O2)c(=O)[nH]c1=O [Compound 28, N-(3′-Deoxythymidin-3′-yl) amido N-hydroxymalonamide] | – | 333 | – | – |
| COC(=O)C(CC1OC(n2cc(C)c(=O)[nH]c2=O)CC1O)C(=O)NC1CC(n2cc(C)c(=O)[nH]c2=O)OC1CO (stereo not shown) [Compound 34, N-(3′-Deoxythymidin-3′-yl)-C-(5′-deoxythymidin-5′-yl) amido methyl malonate] | – | 1000 | some inhibition | – |
| Cc1cn(C2CC(O)C(CC(C(=O)O)C(=O)NC3CC(n4cc(C)c(=O)[nH]c4=O)OC3CO)O2)c(=O)[nH]c1=O (stereo not shown) [Compound 35, N-(3′-Deoxythymidin-3′-yl)-C-(5′-deoxythymidin-5′-yl) amido sodium malonate] | – | 333 | approximately equal potency | – |
| Cc1cn(C2CC(O)C(CC(C(=O)NO)C(=O)NC3CC(n4cc(C)c(=O)[nH]c4=O)OC3CO)O2)c(=O)[nH]c1=O (stereo not shown) [Compound 36, N-(3′-Deoxythymidin-3′-yl)-C-(5′-deoxythymidin-5′-yl) amido N-hydroxy malonamide] | – | 333 | approximately equal potency | – |
| Cc1cn([C@H]2C[C@H](O)[C@@H](CO)O2)c(=O)[nH]c1=O [Thymidine, reference compound] | – | – | no effect on the hydrolysis of the substrate | – |
